Measurements: US6506576B2 (priority 2001, dated 2003)
Like-named read-outs stand apart in the source and are kept apart here.

Legend:
[1] = test system: non-neuronal cells in cerebellar cultures; assay: Inhibition of non-neuronal cell proliferation in primary cerebellar cultures (visual inspection, staining); type: cell-based, rat
Description: Based on the calculated cell numbers, cerebellar cells were serially diluted in an appropriate volume of culture media and seeded into flat-bottom 96-well tissue culture plates pre-coated with poly-L-lysine (Becton Dickinson, Bedford, Mass.). The numbers of cerebellar cells seeded ranged from 6,250 to 400,000 cells per well (0.32 cm^2) in a final volume of 200 μl. Cultures were maintained in a humidified incubator in 5% CO2 at 37° C.
After 7-30 day in vitro, cultures were washed 3 times with phosphate buffered saline (PBS) and fixed for 20-30 minutes with 4% paraformaldehyde in 0.1M sodium phosphate buffer (pH 7.4; PB). Following fixation, cells were washed 3 times with PBS, and either stained with 1% methylene blue (Sigma) in deionized water for 5 minutes and destained with deionized water or permeablized for immunostaining with 0.2% Triton X-100 in PBS. Permeablized cells were washed 3 times with PBS, incubated for 1 hour in 5% normal horse serum in PB and then incubated overnight at 4° C. with a glial fibrillary acidic protein (GFAP) antiserum (1:5000 dilution; Dako, Carpintea, Calif.). Following incubation with primary antiserum, cells were extensively washed with PBS plus 0.1% Tween-20 and immunoreactivity was visualized with NiCl/3,3′-diaminobenzidine (DAB) using the avidin-biotin-complex (ABC) method (Vector Elite-universal; Vector Laboratories, Burlingame, Calif.). […]

cerebellar granule cells [2] = conditions: for concentration at which maximal effects on granule cell viability/lysis were observed / concentration at which significant effects on granule cell viability/lysis were initially detected: MTS reduction and LDH release, independent of culture condition (GCSF or NB-B27)
Description: Viability of the cerebellar granule cell culture was assessed using CellTiter 96® AQueous One Solution Cell Proliferation reagent (Promega, G3580). This colorimetric assay employs, 3-(4,5-dimethylthiazol-2-yl)-5-(3-carboxymethoxyphenyl)-2-(4-sulfophenyl)-2H-tetrazolium (MTS) and the electron coupling reagent, phenazine ethosulfate (PES). […] Briefly, prior to each MTS assay, 100 μl of media was removed from each well, transferred to new 96-well plate for subsequent LDH release analysis. To each cell containing well, 20 μl of MTS tetrazolium reagent was added to the remaining media (100 μl). Culture plates were incubated in the humidified incubator at 37° C. and in 5% CO2 for 2 hours. Following incubation the quantity of formazan product present was determined by measuring the absorbance at 490 nm using a VERSAmax® microplate reader and SOFTmax PRO software (Molecular Devices).
(§1) Granule cell cultures were seeded at an initial density of 1×10^5 cells per well and maintained in GCSF culture media for 7 day in vitro prior to toxicant exposure. On the day of treatment, L-Glutamate, tert-butyl-hydroperoxide (TBHP), hydrogen peroxide (H2O2), ionomycin (Sigma), and MK-801 (Calbiochem, San Diego) were prepared at required concentration in the appropriate media. Cultures were exposed to toxicants for 24 hours prior to viability analysis. Cultures receiving MK-801 were pretreated for 10 minutes prior to addition of L-glutamate, and negative control cultures were treated with fresh media. For dose-dependence of oxidative-induced injury H2O2 and TBHP stock solutions were serially diluted in media to 100× concentrations immediately before each experiment. The concentration of the H2O2 stock solution was determined spectrophotometrically before each experiment based on its absorbance using the equation: C=(Ab240/ε)×DF; where C is the concentration of H2O2 (mM), Ab240 is absorbance at 240 nm, ε is the extinction coefficient (0.0394 mM^−1 cm^−1), DF is the dilution factor, and the path-length of the spectrophotometer is 1 cm. Comparative analysis of granule cell viability/lyses in GCSF and NB-B27 was assessed using the MTS reduction and LDH release assays as described above.

cerebellar granule cells [3] = assay: LDH release assay of granule cell death after toxicant exposure; type: cell-based, rat
Description: The lactate dehydrogenase (LDH) released into the media was determined using Cyto Tox96® non-radioactive cytotoxicity assay (Promega). In this calorimetric assay, LDH converts lactate and nicotinamide adenine dinucleotide (NAD^+) to pyruvate and NADH, respectively. This initial reaction is coupled to a second reaction where diaphorase converts iodo-nitro-tetrazolium salt and NADH to a red colored formazan compound and NAD^+ respectively. Briefly, 50 μl of assay buffer was added to each 100 μl sample of media removed from each well prior to MTS analysis. Samples were then incubated in the dark for 30 minutes at room temperature, and then 50 μl of a stop solution (1M acetic acid) was added into each well and the absorbance at 490 nm was measured as above. Positive control samples of bovine heart LDH (800 units/ml; lot 11455502, Promega) were serially diluted into a final volume of 200 μl and assayed as described above.
as §1

[4] = 400 μM H2O2, 24 hours, 7 DIV cultures in GCSF
[5] = 400 μM H2O2, 24 hours, 7 DIV cultures in NB-B27
[6] = 125 μM TBHP, 24 hours, 7 DIV cultures in GCSF
[7] = 125 μM TBHP, 24 hours, 7 DIV cultures in NB-B27

Compound: cytosine β-D-arabinofuranoside [AraC]
- non-neuronal cell types in cultures ([1]; 10 μM AraC added after 24 hour in vitro, NB-B27 or GCSF): less than 5%
- cells with morphological phenotype of small cerebellar granule cell neurons ([1]; 10 μM AraC added after 24 hours, 96-well plates, visual inspection): > 90%

Compound: C[C@H](CCC(=O)O)C[C@H](C)C[C@H](C)C(=O)/C=C(\O)[C@H](C)C[C@H](C)C/C=C/[C@@H](C)[C@@H](O)[C@@H](C)[C@@H](O)C[C@@H]1CC[C@@](C)([C@H]2CC[C@@](C)([C@@H](C)O)O2)O1 [ionomycin]
- average maximal decrease in viability (MTS reduction) (cerebellar granule cells [2]; ionomycin treatment (10 nM per FIG. 6 legend), GCSF): 56±5 % of control

Compound: OO [H2O2, hydrogen peroxide]
- neuronal cell death (MTS reduction) (cerebellar granule cells [2]; 100 μM H2O2, 24 hours, GCSF, single experiment n=8): Statistically significant levels of neuronal cell death
- MTS-reduction (cerebellar granule cells [2]; [4]): 41.5±1.0 % of control
- MTS-reduction (cerebellar granule cells [2]; [5]): 47±1.2 % of control
- concentration at which maximal effects on granule cell viability/lysis were observed (cerebellar granule cells [2]; 24 hours): 400 µM
- concentration at which significant effects on granule cell viability/lysis were initially detected (cerebellar granule cells [2]; 24 hours): 200 µM
- LDH-release (cerebellar granule cells [3]; [4]): 136.9±2.8 % of control
- LDH-release (cerebellar granule cells [3]; [5]): 125±5.0 % of control

Compound: N[C@@H](CCC(=O)O)C(=O)O [L-glutamate, L-Glutamate]
- granule cell viability (MTS reduction) (cerebellar granule cells [2]; 500 μM L-glutamate, 24 hours, GCSF, representative single experiment): 56.8±2 % of control cultures

Compound: CC(C)(C)OO [TBHP, tert-butyl-hydroperoxide]
- MTS-reduction (cerebellar granule cells [2]; [6]): 37.9±0.8 % of control
- MTS-reduction (cerebellar granule cells [2]; [7]): 43.7±1.9 % of control
- concentration at which maximal effects on granule cell viability/lysis were observed (cerebellar granule cells [2]; 24 hours): 125 µM
- concentration at which significant effects on granule cell viability/lysis were initially detected (cerebellar granule cells [2]; 24 hours): 62.5 µM
- LDH-release (cerebellar granule cells [3]; [6]): 125.4±1.4 % of control
- LDH-release (cerebellar granule cells [3]; [7]): 122.7±5.6 % of control

Compound: C[C@]12N[C@H](Cc3ccccc31)c1ccccc12 [MK-801]
- viability of cultures pretreated with antagonist prior to L-glutamate exposure (MTS reduction) (cerebellar granule cells [2]; 10 μM MK-801 pretreatment 10 minutes, then 500 μM L-glutamate 24 hours, GCSF): not significantly different from the mock-treated control cultures
